Test results as given in patent publication US20030068615A1, “Polypeptides that bind HIV gp120 and related nucleic acids, antibodies, compositions, and methods of use” (priority 1999, published 2003).
Read-outs that look alike come from different tables or passages of the source.

Legend:
[1] = test system: HIV-1 virus strains (e.g. YU2); settings: CCR5 alanine mutant, work of others, cited from earlier work; for percentage compared to wild-type CCR5, 89.6: HIV-1 strain 89.6; for percentage compared to wild-type CCR5, ADA: HIV-1 strain ADA; for percentage compared to wild-type CCR5, DH123: HIV-1 strain DH123; for percentage compared to wild-type CCR5, JF-RL: HIV-1 strain JF-RL; for percentage compared to wild-type CCR5, YU2: HIV-1 strain YU2
HIV-1LAI envelope gp120 = HIV-1LAI envelope gp120 (Human immunodeficiency virus type 1 group M subtype B, UniProt P03377); assay type: binding; settings: for Counts per 20′ Average-background: CCR5 18-mer scan, radiolabeled HIV-1LAI gp120
[2] = STRL33 18-mer scan, background subtracted, first of two count columns
[3] = STRL33 18-mer scan, background subtracted, second of two count columns
[4] = Panel E, 9-mers and 12-mers of CD4, empty control 571
[5] = Panel C, 15-mers and 18-mers of CD4, empty control 556
[6] = human CD4 21-mer scan, empty control 2075
[7] = Panel D, 9-mers and 12-mers of CD4, empty control […]
[8] = Panel B, 15-mers and 18-mers of CD4, empty control 575
[9] = CXCR4 18-mer scan, background subtracted, empty control 0
[10] = CXCR4 18-mer scan, empty control 412

For “MDYAVSSPIYDINYYTSE: CCR5 (1-18) variant Q4A”, the “percentage compared to wild-type CCR5, 89.6” value (“percentage … 89.6” for short) [1] is given as 67%, the “percentage compared to wild-type CCR5, ADA” value (“percentage … ADA” for short) [1] is given as 132% and the “percentage compared to wild-type CCR5, DH123” value (“percentage … DH123” below) [1] is given as 105%. The “percentage compared to wild-type CCR5, JF-RL” value (“percentage … JF-RL” for short) [1] was 111% and the “percentage compared to wild-type CCR5, YU2” value (from here on “percentage … YU2”) [1] was 85%.
For “MDYQVSSPIADINYYTSE: CCR5 (1-18) variant Y10A”, the “percentage … 89.6” value [1] is listed as 10%, the “percentage … ADA” value [1] is listed as 50% and the “percentage … DH123” value [1] is listed as 3%. The “percentage … JF-RL” value [1] was 26% and the “percentage … YU2” value [1] was 2%.
For “MDYQVSSPIYAINYYTSE: CCR5 (1-18) variant D11A”, the “percentage … 89.6” value [1] is given as 6%, the “percentage … ADA” value [1] is given as 27% and the “percentage … DH123” value [1] is given as 3%. The “percentage … JF-RL” value [1] was 22% and the “percentage … YU2” value [1] was 2%.
For “MDYQVSSPIYDINAYTSE: CCR5 (1-18) variant Y14A”, the “percentage … 89.6” value [1] is listed as 6%, the “percentage … ADA” value [1] is listed as 47% and the “percentage … DH123” value [1] is listed as 0%. The “percentage … JF-RL” value [1] was 25% and the “percentage … YU2” value [1] was 12%.
For “MDYQVSSPIYDINYATSE: CCR5 (1-18) variant Y15A”, the “percentage … 89.6” value [1] is listed as 1%, the “percentage … ADA” value [1] is listed as 3% and the “percentage … DH123” value [1] is listed as 0%. For the same substance, the “percentage … JF-RL” value [1] was 3% and the “percentage … YU2” value [1] was 30%.
For “MDYQVSSPIYDINYYTSA: CCR5 (1-18) variant E18A”, the “percentage … 89.6” value [1] is given as 3%, the “percentage … ADA” value [1] is given as 12% and the “percentage … DH123” value [1] is given as 10%. For the same substance, the “percentage … JF-RL” value [1] was 12% and the “percentage … YU2” value [1] was 45%.
For “VFVCGLVGNSLVLVISIF [STRL33 segment 41-58]”, the “radioactive counts recorded in twenty minutes” value (“radioactive counts recorded” below) (HIV-1LAI envelope gp120; [2]) was 570.5 counts and the “radioactive counts recorded” value (HIV-1LAI envelope gp120; [3]) was 284.5 counts.
For VIIKTLLHAGGFQKERSL, the “radioactive counts recorded” value (HIV-1LAI envelope gp120; [2]) was 961.5 counts and the “radioactive counts recorded” value (HIV-1LAI envelope gp120; [3]) was 682.5 counts.
With VISLLVSLPQIIYGNVFN the “radioactive counts recorded” value (HIV-1LAI envelope gp120; [2]) was −60.5 counts and the “radioactive counts recorded” value (HIV-1LAI envelope gp120; [3]) was −127.5 counts.
In the case of VKQIAARLLPPLYSLVFI [CCR5 segment 25-42], the “Counts per 20′ Average-background” value (HIV-1LAI envelope gp120; background subtracted) is reported as 18 counts per 20′.
In the case of VLAFQKASS, the “COUNTS of radiolabeled gp120 retained” value (HIV-1LAI envelope gp120; [4]) is reported as 466 counts.
For VLAFQKASSIVY, the “COUNTS of radiolabeled gp120 retained” value (HIV-1LAI envelope gp120; [4]) was 548 counts.
In the case of VLAFQKASSIVYKKE, the “COUNTS of radiolabeled gp120 retained” value (HIV-1LAI envelope gp120; [5]) is reported as 634 counts.
In the case of VLAFQKASSIVYKKEGEQ, the “COUNTS of radiolabeled gp120 retained” value (HIV-1LAI envelope gp120; [5]) is reported as 549 counts.
For VLAFQKASSIVYKKEGEQVEF, the “COUNTS of radiolabeled gp120 retained” value (HIV-1LAI envelope gp120; Panel A, 21-mers of CD4, empty control 515 and 617) was 1793 counts and the “number of radioactive decays (counts) counted” value (from here on “number of radioactive decays”) (HIV-1LAI envelope gp120; [6]) was 3566 counts.
For “VLGGVAGLLLFIGLGIFFCVR [human CD4 401-421]”, the “number of radioactive decays” value (HIV-1LAI envelope gp120; [6]) was 3738 counts.
For VLPTWSTPVQPMALIVLGGVA, the “number of radioactive decays” value (HIV-1LAI envelope gp120; [6]) was 2197 counts.
With VLQNQKKVE the “COUNTS of radiolabeled gp120 retained” value (HIV-1LAI envelope gp120; [4]) was 556 counts.
In the case of VLQNQKKVEFKI, the “COUNTS of radiolabeled gp120 retained” value (HIV-1LAI envelope gp120; [4]) is reported as 503 counts.
In the case of VLQNQKKVEFKIDIV, the “COUNTS of radiolabeled gp120 retained” value (HIV-1LAI envelope gp120; [5]) is reported as 605 counts.
With VLQNQKKVEFKIDIVVLA the “COUNTS of radiolabeled gp120 retained” value (HIV-1LAI envelope gp120; [5]) was 724 counts.
For “VMRATQLQKNLTCEVWGPTSP [human CD4 316-336]”, the “number of radioactive decays” value (HIV-1LAI envelope gp120; [6]) was 2144 counts.
In the case of VMVICYSGILKTLLRCRN [CCR5 segment 209-], the “Counts per 20′ Average-background” value (HIV-1LAI envelope gp120; background subtracted) is reported as −8 counts per 20′.
With VQLLVFGLT the “COUNTS of radiolabeled gp120 retained” value (HIV-1LAI envelope gp120; [7]) was 815 counts.
With VQLLVFGLTANS the “COUNTS of radiolabeled gp120 retained” value (HIV-1LAI envelope gp120; [7]) was 747 counts.
In the case of VQLLVFGLTANSDTH, the “COUNTS of radiolabeled gp120 retained” value (HIV-1LAI envelope gp120; [8]) is reported as 1006 counts.
With VQLLVFGLTANSDTHLLQ the “COUNTS of radiolabeled gp120 retained” value (HIV-1LAI envelope gp120; [8]) was 673 counts.
For “VSEADDRYICDRFYPNDL [CXCR4 segment 177-194]”, the “radioactive counts recorded” value (HIV-1LAI envelope gp120; [9]) was 157 counts and the “radioactive counts recorded” value (HIV-1LAI envelope gp120; [10]) was 569 counts.
In the case of “VSKREKAVWVLNPEAGMWQCL [human CD4 351-371]”, the “number of radioactive decays” value (HIV-1LAI envelope gp120; [6]) is reported as 2034 counts.
In the case of VSSPIYDINYYTSEPCQK [CCR5 segment 5-22], the “Counts per 20′ Average-background” value (HIV-1LAI envelope gp120; background subtracted) is reported as 383 counts per 20′.
For VSVKRVTQDPKLQMGKKLPLH, the “number of radioactive decays” value (HIV-1LAI envelope gp120) was 1848 counts.
With VTETLGMTHCCINPIIYA [CCR5 segment 281-] the “Counts per 20′ Average-background” value (HIV-1LAI envelope gp120; background subtracted) was 15 counts per 20′.
In the case of “VTQDPKLQMGKKLPLHLTLPQ [human CD4 266-286]”, the “number of radioactive decays” value (HIV-1LAI envelope gp120; [6]) is reported as 2075 counts.
With VVFQFQHIMVGLILPGIV the “radioactive counts recorded” value (HIV-1LAI envelope gp120; [9]) was 589 counts and the “radioactive counts recorded” value (HIV-1LAI envelope gp120; [10]) was 1001 counts.
For VVLAFQKAS, the “COUNTS of radiolabeled gp120 retained” value (HIV-1LAI envelope gp120; [4]) was 600 counts.
In the case of VVLAFQKASSIV, the “COUNTS of radiolabeled gp120 retained” value (HIV-1LAI envelope gp120; [4]) is reported as 567 counts.
For VVLAFQKASSIVYKK, the “COUNTS of radiolabeled gp120 retained” value (HIV-1LAI envelope gp120; [5]) was 577 counts.
